Test [1] has as its system CTG-0243 OS patient-derived xenograft. Nature of the test: Xenograft Tumor Model CTG-0243. The class given is in vivo, mouse. Conditions: comparator day 22, p-value 0.089. The method, then:
(§1) The efficacy of 5-(5-(2-(3-aminopropoxy)-6-methoxyphenyl)-1H-pyrazol-3-ylamino)pyrazine-2-carbonitrile methanesulfonic acid monohydrate is measurable in vivo in mouse models of neuroblastomas and human pediatric and adult sarcomas. 5-(5-(2-(3-Aminopropoxy)-6-methoxyphenyl)-1H-pyrazol-3-ylamino)pyrazine-2-carbonitrile methanesulfonic acid monohydrate (10 mg/kg) can be administered subcutaneously to nude mice bearing either cell-derived xenografts (CDX) or patient-derived xenografts (PDX) of human rhabdomyosarcoma, desmoplastic small round cell tumor (DSRCT), osteosarcoma, and Ewing's sarcoma using a 3 day on, 4 day off b.i.d. dosing schedule. Tumor volume and body weight can be measured two times per week. Tumor-specific parameters can be evaluated by immumohistochemistry. […]
(§2) For all “ST” models (encompassing RMS and LMS), patient-derived xenografts are established from viable human tumor tissue and are serially passaged in animals a limited number of times to maintain tumor heterogeneity. […] Tumor response is determined by tumor volume measurement performed twice per week during the course of treatment.

The test system of another test is DSRCT xenograft models. Nature of the test: Sarcoma xenograft models by tumor subtype: DSRCT. Type of test: in vivo, mouse. As to the method: The efficacy of 5-(5-(2-(3-aminopropoxy)-6-methoxyphenyl)-1H-pyrazol-3-ylamino)pyrazine-2-carbonitrile methanesulfonic acid monohydrate is measurable in vivo in mouse models of neuroblastomas and human pediatric and adult sarcomas. 5-(5-(2-(3-Aminopropoxy)-6-methoxyphenyl)-1H-pyrazol-3-ylamino)pyrazine-2-carbonitrile methanesulfonic acid monohydrate (10 mg/kg) can be administered subcutaneously to nude mice bearing either cell-derived xenografts (CDX) or patient-derived xenografts (PDX) of human rhabdomyosarcoma, desmoplastic small round cell tumor (DSRCT), osteosarcoma, and Ewing's sarcoma using a 3 day on, 4 day off b.i.d. dosing schedule. Tumor volume and body weight can be measured two times per week. Tumor-specific parameters can be evaluated by immumohistochemistry.
For all “CTG” models (encompassing human RMS, DSRCT, EWS, OS and LMS patient-derived xenograft models), female NCr nude spontaneous mutant mice (5-8 weeks old, Taconic) are implanted unilaterally in the flank region with tumor fragments harvested from donor animals, each implanted from a specific passage lot.
(§3) For all “ST” models (encompassing RMS and LMS), patient-derived xenografts are established from viable human tumor tissue and are serially passaged in animals a limited number of times to maintain tumor heterogeneity. In subcutaneous models, athymic nude mice (Crl:NU(NCr)-Foxn1nu) or CB-17 SCID mice (CRL-CB17/Icr-Prkdcscid/IcrIcoCrl) are injected or implanted unilaterally into the flank with tumor fragments harvested from host animals, each implanted from a specific passage lot. For all studies, measure tumor growth and body weight twice per week beginning on the seventh day after implantation. When tumor size reaches 150-300 mm^3, randomize animals and group into groups of 4-7 animals. Prepare test compound in an appropriate vehicle (e.g. vehicle can be 20% Captisol® in sterile water) and administer subcutaneously for three consecutive days followed by a four day dosing holiday and repeat for a minimum of four weeks. Tumor response is determined by tumor volume measurement performed twice per week during the course of treatment.

The subject of test [2] is ST1547 LMS patient-derived xenograft. Briefly: Xenograft Tumor Model ST1547. The class given is in vivo, mouse. Conditions: comparator day 28, p-value <0.001. The method, then: as §3
Another test deals with SJCRH-30 RMS xenograft. The class given is in vivo. To be noted: for % T/C: SJCRH-30, RMS.
Test [3] relates to RD, SJCRH30, Saos-2 and RD-ES cell lines. Briefly: In Vitro Response of Pediatric Cell Lines (western blot). Type of test: cell-based. To be noted: 24 hours at 5 and 50 nM. As to the method:
Cellular lysates can be obtained from embryonal and alveolar rhabdomyosarcoma (RD and SJCRH30, respectively), osteosarcoma (Saos-2), and Ewing's sarcoma (RD-ES) cell lines treated with 5-(5-(2-(3-aminopropoxy)-6-methoxyphenyl)-1H-pyrazol-3-ylamino)pyrazine-2-carbonitrile methanesulfonic acid monohydrate (Example 5) for 24 hours at 5 and 50 nM final concentration.
A western blot can be run using the cellular lysates described above. […] Higher levels of DNA damage can be observed with CHK1 inhibition. Accordingly, the levels of gammaH2AX, a signal for DNA damage, increase upon treatment with 5-(5-(2-(3-aminopropoxy)-6-methoxyphenyl)-1H-pyrazol-3-ylamino)pyrazine-2-carbonitrile methanesulfonic acid monohydrate (Example 5).
Background: Immunoblotting shows a protein as a band on a membrane.

The test system of test [4] is ST0001 LMS patient-derived xenograft. Nature of the test: Xenograft Tumor Model ST0001. To be noted: comparator day 19, p-value 0.247. Type of test: in vivo, mouse. The method, then:
as §3

Test [5] has as its system CTG-0994 EWS patient-derived xenograft. Briefly: Xenograft Tumor Model CTG-0994. Type of test: in vivo, mouse. To be noted: comparator day 25, p-value <0.001. The method, then:
as §1, §2

Test [6] relates to Liposarcoma xenograft models. Nature of the test: Sarcoma xenograft models by tumor subtype: Liposarcoma. The class given is in vivo, mouse. To be noted: age of patients 36-74 years.
Test [7] concerns Thirty solid tumor cell lines from 13 tumor histotypes. Briefly: Monolayer Proliferation and Cytotoxicity Assay (Oncotest, modified PI assay). Type of test: cell-based. To be noted: 96 h, 4 days of treatment, PI fluorescence, read-out: EC50, growth inhibition of the majority of the tumor cell lines. From the text:
One measure of potency of a CHK1 inhibitor is its ability to inhibit the proliferation of cancer cells in culture due to uncontrolled replication origin activation. (Conti et al. Cell Cycle 6: 2760-2767, 2007) Determination of CHK1 inhibitor antiproliferative activity in cell lines derived from a broad range of tumor types is indicative of which tumor types may be clinically responsive to chemotherapy with CHK1 inhibitors. The following described cellular proliferation assay is run at Oncotest, GmbH in Germany. Thirty solid tumor cell lines are derived from 13 different tumor histotypes, each represented by 1 to 6 different cell lines (Oncotest, GmbH). […] Briefly, adherent cells are harvested from exponential phase cultures by trypsinization, counted and plated in 96 well flat-bottomed microtiter plates at a cell density depending on the cell line (4.000-20.000 cells/well). […] Finally, PI fluorescence is measured using the Cytofluor 4000 microplate reader (excitation k=530 nm, emission k=620 nm) to determine the total viable cell number. Growth inhibition is expressed as Test/Control×100 (% T/C) values. Based on the T/C values, relative IC50 values are determined using non-linear regression (log[conc. of inhibitor] versus response (% T/C)).

Structures can show the parent of a compound that is named as a salt. Where two headings read alike, the source gives them in different places.

Procedure for SJCRH-30 RMS xenograft: Expand human RMS cancer cells SJCRH-30 (St. Jude Children's Research Hospital) in culture, harvest, and inject 5×10^6 cells in 200 μL of HBSS subcutaneously into the right rear flank of female athymic nude mice (20-22 g, Harlan Laboratories).
The vehicle used in this study is 20% Captisol® in sterile water and is administered subcutaneously for three consecutive days followed by a four day dosing holiday and repeated for a minimum of four weeks. […] The treatment period lasts 4 weeks.

With `COc1cccc(OCCCN)c1-c1cc(Nc2cnc(C#N)cn2)n[nH]1` [Example 5, 5-(5-(2-(3-Aminopropoxy)-6-methoxyphenyl)-1H-pyrazol-3-ylamino)pyrazine-2-carbonitrile methanesulfonic acid monohydrate], the “% T/C” value in [1] was 43%; in test [2], 5%; with SJCRH-30 RMS xenograft (comparator day 46) it was 0.1%; in the test with SJCRH-30 RMS xenograft (comparator day 56), 58%; in test [4], 292%. Further, the “Result of Treatment: Complete Response (models)” value in the test with DSRCT xenograft models (DSRCT, age of patients 20 years) is recorded as 1/1 Complete. Further, in the test on DSRCT xenograft models (PDX model of DSRCT, after regrowth), the “tumor response when re-challenged” value is reported as “tumor regression”. Also, in the test with DSRCT xenograft models (PDX model of DSRCT, upon cessation of therapy), the “time post-treatment at which tumor growth is observed” value is reported as 50 days. In addition, the “tumor response in a PDX model of DSRCT” value with DSRCT xenograft models (following four dosing cycles) is recorded as “complete regression”. Besides, the “tumor response as a single agent” value in the test on SJCRH-30 RMS xenograft (SJCRH-30, SC three days on, four day holiday, 4 weeks, tumor regrowth occurs from day 38) was “initial complete response until day 38”. Also, the “effect on acquired resistance in SJCRH30 xenografts” value in the test with SJCRH-30 RMS xenograft (combination with doxorubicin, ifosfamide, or irinotecan) is recorded as “appears to circumvent the acquired resistance”. Further, the CHK1 protein levels entry in test [3] was “do not change”. Further, the “levels of gammaH2AX (signal for DNA damage)” value in test [3] is listed as “increase”. Besides, the “levels of phospho-AKT” value in test [3] was “do not appear to change”. The “phospho-CHK1 (S345) levels” value in test [3] was “increase”. Also, the “levels of phospho-ERK 1/2 (T202/Y204)” value in test [3] (RD-ES non-responding) is reported as “increase in three out of four cell lines”. In addition, the phospho-hnRNP-C levels entry in test [3] (unaffected in the RD-ES cell line) was “increase”. In addition, in [5], the “% Regression” value is recorded as −79%. Also, in test [6], the “Result of Treatment: Progressive Disease (models)” value is 7/7 Progressive.

Usually EC50 stands for the concentration giving half of the maximal effect. Regarding `COc1cccc(OCCCN)c1-c1cc(Nc2cnc(C#N)cn2)n[nH]1` [Example 2, 5-(5-(2-(3-Aminopropoxy)-6-methoxyphenyl)-1H-pyrazol-3-ylamino)pyrazine-2-carbonitrile dihydrogen chloride salt], in test [7], the EC50 was less than 20 nM.
